Experimental data reported in patent US8796244B2, “Imidazopyridine derivatives as inhibitors of receptor tyrosine kinases” (Astex Therapeutics Ltd, priority 2008, dated 2014).
pIC50: −log10 of the molar value.

System: parental wild-type Ba/F3 cells
Assay: Ba/F3 (WT) cell proliferation assay (Alamar Blue)
Assay type: cell-based
Conditions: Mus musculus; for pIC50: BaF3, 72 hours, Alamar Blue, read-out: BaF3 WT prolif
[1] = BaF3, read-out: BaF3 WT prolif, % inhibition

SMILES	pIC50	inhibition at 10 µM [1]	other results
Cc1cc(Cl)nnc1-c1ccn2c(-c3cccc(NC(=O)NCC(F)(F)F)c3)cnc2c1 [Example 136, 1-{3-[7-(6-Chloro-4-methyl-pyridazin-3-yl)-imidazol[1,2-a]pyridin-3-yl]-phenyl}-3-(2,2,2-trifluoro-ethyl)-urea]	6.36	–	–
COc1cnc(Cl)nc1-c1ccn2c(-c3cccc(NC(=O)NCC(F)(F)F)c3)cnc2c1 [Example 139, 1-{3-[7-(2-Chloro-5-methoxy-pyrimidin-4-yl)-imidazo[1,2-a]pyridin-3-yl]-phenyl}-3-(2,2,2-trifluoro-ethyl)-urea]	5.44	–	–
COc1cncnc1-c1ccn2c(-c3cccc(NC(=O)NCC(F)(F)F)c3)cnc2c1 [Example 140, 1-{3-[7-(5-Methoxy-pyrimidin-4-yl)-imidazo[1,2-a]pyridin-3-yl]-phenyl}-3-(2,2 ,2-trifluoro-ethyl)-urea]	–	7.1%	–
Cc1cnnc(-c2ccn3c(-c4cccc(NC(=O)NCC(F)(F)F)c4)cnc3c2)n1 [Example 142, 1-{3-[7-(5-Methyl-[1,2,4]triazin-3-yl)-imidazo[1,2-a]pyridin-3-yl]-phenyl}-3-(2,2,2-trifluoro-ethyl)-urea]	5.96	–	–
CC(=O)N1CCN(c2ccc(-c3ccn4c(-c5cccc(NC(=O)NCC(F)(F)F)c5)cnc4c3)cn2)CC1 [Example 145, 1-(3-{7-[6-(4-Acetyl-piperazin-1-yl)-pyridin-3-yl]-imidazo[1,2-a]pyridin-3-yl}-phenyl)-3-(2,2,2-trifluoro-ethyl)-urea]	6.09	–	–
COc1ncccc1-c1ccn2c(-c3cccc(NC(=O)NCC(F)(F)F)c3)cnc2c1 [Example 150, 1-{3-[7-(2-Methoxy-pyridin-3-yl)-imidazo[1,2-a]pyridin-3-yl]-phenyl}-3-(2,2,2-trifluoro-ethyl)-urea]	5.77	–	–
Cn1cncc1/C=C/c1ccn2c(-c3cccc(NC(=O)NCC(F)(F)F)c3)cnc2c1 [Example 155, 1-(3-{7-[(E)-2-(3-Methyl-3H-imidazol-4-yl)-vinyl]-imidazo[1,2-a]pyridin-3-yl}-phenyl)-3-(2,2,2-trifluoro-ethyl)-urea]	–	–	inhibition at 3 µM [1]: 28%
Cc1nnc(-c2ccn3c(-c4cccc(NC(=O)NC5CC5)c4)cnc3c2)o1 [Example 157, 1-Cyclopropyl-3-{3-[7-(5-methyl-[1,3,4]oxadiazol-2-yl)-imidazo[1,2-a]pyridin-3-yl]-phenyl}-urea]	–	38%	–
O=C(Nc1cccc(-c2cnc3cc(-c4nncs4)ccn23)c1)NC1CC1 [Example 158, 1-Cyclopropyl-3-[3-(7-[1,3,4]thiadiazol-2-yl-imidazo[1,2-a]pyridin-3-yl)-phenyl]-urea]	5.54	–	–
Nc1cnc(-c2ccn3c(-c4cccc(NC(=O)NCC(F)(F)F)c4)cnc3c2)nc1Cl [Example 170]	–	–	inhibition at 3 µM [1]: 14%
Cc1cc(N)nc(-c2ccn3c(-c4cccc(NC(=O)NCC(F)(F)F)c4)cnc3c2)n1 [Example 171]	–	–	inhibition at 1 µM [1]: 16%
Cc1nc(-c2ccn3c(-c4cccc(NC(=O)NCC(F)(F)F)c4)cnc3c2)ccc1F [Example 172]	5.47	–	–
O=C(NCC(F)(F)F)Nc1cccc(-c2cnc3cc(-c4ncc(F)c(NC5CC5)n4)ccn23)c1 [Example 180]	–	42%	–
O=C(NCC(F)(F)F)Nc1cccc(-c2cnc3cc(-c4cc(=O)[nH]cn4)ccn23)c1 [Example 184]	–	22%	–
Cn1ccnc1/C=C/c1ccn2c(-c3cccc(NC(=O)NCC(F)(F)F)c3)cnc2c1 [Example 189]	5.47	–	–
O=C(NCC(F)(F)F)Nc1cccc(-c2cnc3cc(-c4nccc(=O)[nH]4)ccn23)c1 [Example 190]	–	–	inhibition at 3 µM [1]: 35%
Cc1nc(-c2ccn3c(-c4cccc(NC(=O)NCC(F)(F)F)c4)cnc3c2)cc(N2CCN(CCO)CC2)n1 [Example 194]	–	–	inhibition at 3 µM [1]: 26%
NC1CN(c2ccnc(-c3ccn4c(-c5cccc(NC(=O)NCC(F)(F)F)c5)cnc4c3)n2)C1 [Example 197]	5.59	–	–
O=C(NCC(F)(F)F)Nc1cccc(-c2cnc3cc(-c4ccnc(C(F)(F)F)n4)ccn23)c1 [Example 199]	–	62%	–
O=C(NCC(F)(F)F)Nc1cccc(-c2cnc3cc(-c4nccc(N5CC(O)C5)n4)ccn23)c1 [Example 203]	–	30%	–
COc1ccc(-c2ccn3c(-c4cccc(NC(=O)NCC(F)(F)F)c4)cnc3c2)nc1 [Example 204]	6.09	–	–
CSc1nc(N)cc(-c2ccn3c(-c4cccc(NC(=O)NCC(F)(F)F)c4)cnc3c2)n1 [Example 205]	5.01	–	–

SMILES	pIC50	inhibition at 10 µM [1]	other results
O=C(NCC(F)(F)F)Nc1cccc(-c2cnc3cc(/C=C/CO)ccn23)c1 [Example 206]	5.54	–	–
NC(=O)c1ccc(-c2ccn3c(-c4cccc(NC(=O)NCC(F)(F)F)c4)cnc3c2)nc1 [Example 207]	–	14%	–
Cc1nc(N)cc(-c2ccn3c(-c4cccc(NC(=O)NCC(F)(F)F)c4)cnc3c2)n1 [Example 208]	–	21%	–
NC(=O)c1ccnc(-c2ccn3c(-c4cccc(NC(=O)NCC(F)(F)F)c4)cnc3c2)c1 [Example 209]	–	0%	–
O=C(NCC(F)(F)F)Nc1cccc(-c2cnc3cc(-c4nccc(-n5ccnc5)n4)ccn23)c1 [Example 213]	–	22%	–
CN(C)c1cc(-c2ccn3c(-c4cccc(NC(=O)NCC(F)(F)F)c4)cnc3c2)nc(C(F)(F)F)n1 [Example 214]	5.59	–	–
CN(C)S(=O)(=O)n1ccnc1-c1ccnc(-c2ccn3c(-c4cccc(NC(=O)NCC(F)(F)F)c4)cnc3c2)n1 [Example 216]	–	28%	–
O=C(NCC(F)(F)F)Nc1cccc(-c2cnc3cc(-c4cnn(C5CN(CCO)C5)c4)ccn23)c1 [Example 217]	–	–	inhibition at 3 µM [1]: 37%
CNc1cc(-c2ccn3c(-c4cccc(NC(=O)NCC(F)(F)F)c4)cnc3c2)nc(SC)n1 [Example 218]	–	30%	–
Cc1nc2cc(-c3ccn4c(-c5cccc(NC(=O)NCC(F)(F)F)c5)cnc4c3)ccc2s1 [Example 219]	5.46	–	–
CNC(=O)c1ccnc(-c2ccn3c(-c4cccc(NC(=O)NCC(F)(F)F)c4)cnc3c2)n1 [Example 220]	5.82	–	–
O=C(NCC(F)(F)F)Nc1cccc(-c2cnc3cc(-c4nccc(C(=O)N5CCOCC5)n4)ccn23)c1 [Example 221]	–	–	inhibition at 3 µM [1]: 21%
CNC(=O)c1cc(C)nc(-c2ccn3c(-c4cccc(NC(=O)NCC(F)(F)F)c4)cnc3c2)n1 [Example 222]	5.64	–	–
Cc1cn2nc(-c3ccn4c(-c5cccc(NC(=O)NCC(F)(F)F)c5)cnc4c3)sc2n1 [Example 225]	–	0%	–
Cc1cc(-c2ccn3c(-c4cccc(NC(=O)NCC(F)(F)F)c4)cnc3c2)nc(C(C)C)n1 [Example 226]	–	40%	–
O=C(NCC(F)(F)F)Nc1cccc(-c2cnc3cc(-c4cc(C(F)(F)F)ncn4)ccn23)c1 [Example 227]	5.44	–	–
CCNC(=O)Nc1cccc(-c2cnc3cc(-c4ccc(F)c(C)n4)ccn23)c1 [Example 228]	5.29	–	–
Nc1nc(-c2ccn3c(-c4cccc(NC(=O)NCC(F)(F)F)c4)cnc3c2)ccc1C(F)(F)F [Example 231]	–	23%	–
Nc1cc(-c2ccn3c(-c4cccc(NC(=O)NCC(F)(F)F)c4)cnc3c2)ncc1C(F)(F)F [Example 234]	5.19	–	–
CCNC(=O)Nc1cccc(-c2cnc3cc(-c4ncc(C(F)(F)F)c(N)n4)ccn23)c1 [Example 235]	5.92	–	–
Cc1cc(-c2ccn3c(-c4cccc(NC(=O)NCC(F)(F)F)c4)cnc3c2)nc(C(F)(F)F)n1 [Example 237]	6.92	–	–
